Experimental data taken from patent US11459586B2, “Methods for increasing efficiency of nuclease-mediated gene editing in stem cells” (President and Fellows of Harvard College, priority 2016, dated 2022).

Test system: human iPSC
Test: simultaneous multiplex mThy1 and mCD147 gene replacement in hiPSC
Assay type: cell-based
From the text: FIGS. 5A-B. Bcl-2 overexpression enables double homozygous targeted gene replacement in human iPSC. FIG. 5A. Mouse Thy1 gene targeting scheme (left). Mouse CD147 gene targeting scheme (right): Two sgRNAs target human BSG (CD147) within intron 1 (Left) or after the polyadenylation site (Right). The mouse CD147 targeting vector plasmid contains mCD147 coding exons 2-7, flanked by hCD147 homology arms outside the sgRNA sites—coding exon 1 (which encodes the signal peptide) is retained but the sgRNA sites are disrupted. FIG. 5B. Plain human iPSC were transfected with 1 μg each of the mThy1 and mCD147 targeting vectors together with a total of 2 μg “Cas9 only sgRNA” or “Cas9 Bcl-2 sgRNA” expression plasmid. Cells were transfected with the following sgRNA combinations: Thy1 Left and CD147 Left, Thy1 Right and CD147 Right, all four Thy1 and CD147 sgRNAs, or Negative sgRNA #1. Nine days later, cells were analyzed by flow cytometry for mThy1, hThy1, mCD147, and hCD147 expression. Upper two plots show the percent of Thy1 or CD147 gene replacement as gated on all live single iPSC. Lower four plots show the percent of CD147 gene replacement as gated on the Thy1 gene targeting quadrants. Results are representative of four independent experiments.
The U6 promoter-sgRNA (for each sgRNA sequence) was cloned into the EF1α promoter-Cas9 nuclease or EF1α promoter-Cas9 nuclease-IRES-Bcl-2 expression plasmids to form the “Cas9 only sgRNA” or “Cas9 Bcl-2 sgRNA” plasmids used in Examples 6 and 7.
Previously, low gene targeting frequencies in hiPSC could be overcome by clever enrichment or selection schemes. However, for simultaneous multiplex gene targeting, a higher absolute frequency is needed. […] Plain hiPSC were transfected with both mThy1 and mCD147 targeting vectors together with the “Cas9 only sgRNA” or “Cas9 Bcl-2 sgRNA” plasmids. Combinations of both Left sgRNAs, both Right sgRNAs, all four sgRNAs, or a negative control sgRNA were used. Cultures were then analyzed by flow cytometry for hThy1, mThy1, hCD147, and mCD147 expression. […] When cell populations were gated on homozygous mThy1 gene replacement (red) and then analyzed for mCD147 gene replacement, we found an enrichment of mCD147 events, rather than an independent assortment of gene editing outcomes. Likewise, when all four sgRNAs were transfected, the mThy1^−hThy1^− double negative population (blue) contained an enriched proportion of mCD147^−hCD147^− cells. Even considering an overall transfection rate of 60-70%, these enrichments indicate that hiPSC may be poised for either HR or NHEJ at various periods. With Bcl-2, the frequency of HR-mediated double homozygous gene replacements (mThy1^+hThy1^− mCD147^+hCD147^−) increased by an order of magnitude (Left sgRNAs: from 0.02% to 0.16%; Right sgRNAs: from 0.01% to 0.37%). […]

**Q.** What does the source list for “Bcl-2: B cell lymphoma 2 protein, anti-apoptotic, overexpressed from lentivirus or Cas9 plasmid”?
**A.** frequency of HR-mediated double homozygous gene replacements (mThy1+hThy1- mCD147+hCD147-) (Left sgRNAs, with Bcl-2 (from 0.02% without)): 0.16%; frequency of HR-mediated double homozygous gene replacements (mThy1+hThy1- mCD147+hCD147-) (Right sgRNAs, with Bcl-2 (from 0.01% without)): 0.37%; NHEJ-mediated quadruple-negative deletions (mThy1-hThy1- mCD147-hCD147-) (all four sgRNAs, with Bcl-2 (from 0.7% without)): 1.1%; gene editing frequencies (multiplex mThy1 and mCD147 targeting, every sgRNA combination): improved gene editing frequencies
